Experimental data reported in ChEMBL document CHEMBL3046648, “Herbicidally Active N-(1-Arylethenyl)-2-chloroacetamides Bearing an Alkyloxyalkyl Moiety” (1991).

Tests used:
Assay type in all cases: functional
[1] = Herbicidal activity against annual broad-leaf weeds assessed as killing at 10 g/a at 25 degC measured after 3 weeks
Pontederia vaginalis [2] = assay: Herbicidal activity against Monochoria vaginalis assessed as killing at 1 g/a at 25 degC measured after 3 weeks
Pontederia vaginalis [3] = assay: Herbicidal activity against Monochoria vaginalis assessed as killing at 10 g/a at 25 degC measured after 3 weeks
[4] = system: Schoenoplectiella juncoides; assay: Herbicidal activity against Schoenoplectiella juncoides assessed as killing at 1 g/a at 25 degC measured after 3 weeks
[5] = system: Schoenoplectiella juncoides; assay: Herbicidal activity against Schoenoplectiella juncoides assessed as killing at 10 g/a at 25 degC measured after 3 weeks
Cyperus difformis [6] = assay: Herbicidal activity against Cyperus difformis assessed as killing at 1 g/a at 25 degC measured after 3 weeks
Cyperus difformis [7] = assay: Herbicidal activity against Cyperus difformis assessed as killing at 10 g/a at 25 degC measured after 3 weeks
Echinochloa oryzicola [8] = assay: Herbicidal activity against Echinochloa oryzicola assessed as killing at 1 g/a at 25 degC measured after 3 weeks
Echinochloa oryzicola [9] = assay: Herbicidal activity against Echinochloa oryzicola assessed as killing at 10 g/a at 25 degC measured after 3 weeks
[10] = Herbicidal activity against annual broad-leaf weeds assessed as killing at 1 g/a at 25 degC measured after 3 weeks

| SMILES | Activity [1] | Activity (Pontederia vaginalis [2]) | Activity (Pontederia vaginalis [3]) | Activity [4] | Activity [5] | Activity (Cyperus difformis [6]) | Activity (Cyperus difformis [7]) | Activity (Echinochloa oryzicola [8]) | Activity (Echinochloa oryzicola [9]) | Activity [10] |
| --- | --- | --- | --- | --- | --- | --- | --- | --- | --- | --- |
| CCOC(CN(C(=O)CCl)C(=C(C)C)c1ccccc1)OCC | 100% | 0% | 100% | 0% | 100% | 40% | 100% | 0% | 100% | – |
| COCCCN(C(=O)CCl)C(=C(C)C)c1ccccc1 | 100% | 100% | 100% | 40% | 100% | 60% | 100% | 60% | 100% | 0% |
| C/C=C/COCCN(C(=O)CCl)C(=C(C)C)c1ccccc1 | 80% | – | 100% | – | 100% | – | 100% | – | 100% | – |
| COC=C(c1ccccc1)N(CCOC)C(=O)CCl | 0% | – | 0% | – | 40% | – | 60% | – | 100% | – |
| COCCN(C(=O)CCl)C(=C(C)C)c1cccc(Oc2ccc(Cl)cc2)c1 | 100% | – | 100% | – | 80% | – | 100% | – | 100% | – |
| CSCCN(C(=O)CCl)C(=C(C)C)c1ccccc1 | 0% | – | 0% | – | 20% | – | 0% | – | 60% | – |
| COCCN(C(=O)CCl)C(=C(C)C)c1ccc(OC)c(OC)c1 | 100% | 60% | 100% | 60% | 100% | 80% | 100% | 80% | 100% | – |
| COCCN(C(=O)CCl)C(=C(C)C)c1cccc(Cl)c1 | 100% | 60% | 100% | 80% | 100% | 80% | 100% | 80% | 100% | 80% |
| CC=C(c1ccccc1)N(CCOC)C(=O)CCl | 100% | 0% | 100% | 0% | 100% | 60% | 100% | 40% | 100% | 0% |
| COCCN(C(=O)CCl)C(=C(C)C)c1ccccc1Cl | 100% | 0% | 100% | 80% | 100% | 100% | 100% | 80% | 100% | 0% |
| COCCN(C(=O)CCl)C(=C(C)C)c1ccccc1C | 80% | 0% | 80% | 0% | 100% | 80% | 100% | 80% | 100% | 80% |
| CCCCOCN(C(=O)CCl)c1c(CC)cccc1CC [BUTACHLOR] | 100% | – | 100% | – | 100% | – | 100% | – | 100% | – |
| COCCN(C(=O)CCl)C(=C(C)C)c1cc(C(C)C)ccc1C | 100% | 0% | 100% | 0% | 100% | 0% | 100% | 60% | 100% | – |
| COCCN(C(=O)CCl)C(=C(C)C)c1ccc(C)cc1C | 80% | 0% | 100% | 80% | 100% | 80% | 100% | 60% | 100% | 0% |
| CCC(CC)=C(c1ccccc1)N(CCOC)C(=O)CCl | 80% | 0% | 100% | 0% | 100% | 40% | 100% | 80% | 100% | 0% |
| CCCCCOCCN(C(=O)CCl)C(=C(C)C)c1ccccc1 | 80% | – | 0% | – | 60% | – | 80% | – | 80% | – |
| COCCN(C(=O)CCl)C(=C(C)C)c1ccc(C(C)(C)C)cc1 | 100% | 60% | 100% | 60% | 100% | 60% | 100% | 80% | 100% | 80% |
| COCCN(C(=O)CCl)C(=C1CCCCC1)c1ccccc1 | 80% | 0% | 100% | 0% | 100% | 0% | 100% | 20% | 100% | 60% |

| SMILES | Activity [1] | Activity (Pontederia vaginalis [2]) | Activity (Pontederia vaginalis [3]) | Activity [4] | Activity [5] | Activity (Cyperus difformis [6]) | Activity (Cyperus difformis [7]) | Activity (Echinochloa oryzicola [8]) | Activity (Echinochloa oryzicola [9]) | Activity [10] |
| --- | --- | --- | --- | --- | --- | --- | --- | --- | --- | --- |
| C=CCOCCN(C(=O)CCl)C(=C(C)C)c1ccccc1 | 100% | 100% | 100% | 100% | 100% | 100% | 100% | 100% | 100% | 100% |
| CCC=C(c1ccccc1)N(CCOC)C(=O)CCl | 80% | 0% | 100% | 0% | 100% | 80% | 100% | 60% | 100% | 0% |
| COCCN(C(=O)CCl)C(=C(C)C)c1ccc(OC)cc1 | 100% | 80% | 100% | 80% | 100% | 100% | 100% | 80% | 100% | 0% |
| CC(C)=C(c1ccccc1)N(CCOC/C=C/c1ccccc1)C(=O)CCl | 0% | – | 0% | – | 40% | – | 0% | – | 20% | – |
| CCOC(=O)C(CC)N(C(=O)CCl)C(=C(C)C)c1ccccc1 (centres undefined) | 80% | – | 40% | – | 60% | – | 40% | – | 80% | – |
| COCCN(C(=O)CCl)C(=C(C)C)c1ccccc1OC | – | 0% | 100% | 0% | 100% | 0% | 80% | 0% | 100% | 0% |
| CCOC(=O)CN(C(=O)CCl)C(=C(C)C)c1ccccc1 | 80% | – | 40% | – | 40% | – | 80% | – | 100% | – |
| COCCN(C(=O)CCl)C(=C(C)C)c1cccc2ccccc12 | 60% | – | 60% | – | 60% | – | 80% | – | 100% | – |
| COCCN(C(=O)CCl)C(=C(C)C)c1ccc(C)o1 | 100% | – | 100% | – | 100% | – | 100% | – | 100% | – |
| COC(=O)C(C)N(C(=O)CCl)C(=C(C)C)c1ccccc1 (centres undefined) | 80% | – | 80% | – | 100% | – | 80% | – | 100% | – |
| C=C(c1ccccc1)N(CCOC)C(=O)CCl | 80% | – | 40% | – | 60% | – | 80% | – | 100% | – |
| CCCCC=C(c1ccccc1)N(CCOC)C(=O)CCl | 80% | – | 100% | – | 100% | – | 80% | – | 80% | – |
| COCCN(C(=O)CCl)C(=C(C)C)c1ccco1 | 100% | 0% | 100% | 40% | 100% | 20% | 100% | 100% | 100% | – |
| CCOC(=O)C(C)N(C(=O)CCl)C(=C(C)C)c1ccccc1 (centres undefined) | 100% | – | 100% | – | 100% | – | 100% | – | 100% | – |
| CCCOCCN(C(=O)CCl)C(=C(C)C)c1ccccc1 | 100% | 100% | 100% | 80% | 100% | 100% | 100% | 100% | 100% | – |
| CC(C)=C(c1ccccc1)N(CCCOC(C)C)C(=O)CCl | 100% | – | 100% | – | 100% | – | 100% | – | 100% | – |
| CC(C)=C(c1ccccc1)N(CCOCC(F)(F)F)C(=O)CCl | 60% | – | 60% | – | 80% | – | 100% | – | 100% | – |
